Columns and labels:
collagen III = assay: Collagen III expression and secretion in human HaCaT cells (western blot); type: cell-based; conditions: relative to 0 = 1.00
Method: (§1) The Spontaneously transformed human keratinocyte cell lines HaCaT cells were grown at 37° C. in a humidified incubator under 5% CO2 and 95% air in culture medium such as Dulbecco Modified Eagle Medium (DMEM) supplemented with 10% Fetal Bovine Serum (FBS), 100 IU/mL penicillin, 100 μg/mL of streptomycin, 2 mM sodium pyruvate and 1% Non-Essential Amino Acids (NEAA). The culture medium was replaced every other day. After confluence, the cells were subcultured following trypsinization. For subcultures cells were harvested after brief treatment with 0.1% trypsin/ethylenediaminetetraacetic acid (EDTA) solution and seeded at a dilution of 1:10. Cells between passages 12 and 45 were used for studies. The cells were seeded and incubated for 24 h before treated with the astragalosides for 24 h. Control cultures were maintained in medium supplemented with vehicle (dimethyl sulfoxide (DMSO) 0.1%). No growth and differentiation effects of DMSO were observed under these culture conditions.
(§2) The cells were treated with pure compounds such as astragaloside I (AS 1), astragaloside II (AS2), astragaloside III (AS3), astragaloside IV (AS4), astragaloside VI (AS6), isoastragaloside I (isoAS1), isoastragaloside II (isoAS2), and cycloastragenol 6-O-β-D-glucopyranose (AA) at concentrations of 0-10 μM. Alternatively, the cells were also treated with the crude extracts, such as butanol fraction and water insoluble fraction of Astragalus membranaceus at concentrations of 0, 1, 10, and 40 μg/mL. The cells were treated with the indicated compounds or the extracts for 24 h before harvested for analysis of collagen I and III expressed in the whole cell extract or secreted into the culture medium.
(§3) Western blot analysis was carried out on both of cultured medium and cell lysates. The cells were plated on 6-cm dishes at a density of 1×10^6 cells/dish for 24 h prior to treatment with indicated concentrations of astragalus triterpenoids as indicated for another 48 h. The conditioned culture mediums were then centrifuged, 2-fold concentrated and collected for assay of collagens and MMPs secreted into the culture medium. The cells were washed and lysed in 0.2 mL of lysis buffer (1% NP-40, 50 mM Tris-HCl, pH 7.4, 180 mM NaCl, 1 mM EDTA, 1 mM PMSF, 1 mM NaF, 10 mM Na3VO4) for 30 min at 4° C. After centrifuging at 17500 g for 15 min, the supernatants of cell lysate were also collected. Protein concentration of the samples were measured using the bicinchoninic acid (BCA) protein assay kit according to the manufacturer's protocol (Pierce, Rockford, Ill., USA). Equal amount of protein samples of concentrated conditioned medium (100 μg) or cell lysate supernatants (50 μg) were mixed with an appropriate volume of 4×SDS sampling buffer and separated by 8% SDS-PAGE gel. The protein bands separated in the SDS-PAGE gel were blotted onto a polyvinylidene fluoride (PVDF) membrane. The blotted PVDF membrane was washed twice and blocked in freshly prepared Tris-buffered saline (TBS) containing 0.1% Tween-20 and 7% skim milk (TBST) for 2 h at room temperature. The PVDF membrane was then incubated with either antibodies against collagen I and III or the housekeeping protein α-tubulin (Santa Cruz Biotechnology, Santa Cruz, Calif.) for 18 h at 4° C. Horseradish peroxidase-conjugated anti-goat antibody was used as secondary antibody. Signals were visualized by an enhanced chemiluminescence kit (Clonetech, Palo Alto, Calif., USA) followed by exposure to X-ray films.
The collagen III was also over-expressed in the human HaCaT cells treated with different doses (0.01, 0.1 and 1 μM) of the astragalosides, such as AS1, AS2 and AS3. Similarly, the collagen III was over-expressed in the human HaCaT cells treated with various dosages (1, 10 and 40 μg/mL) of the crude extract as shown in Table 1B. On the other hand, the amount of collagen III secreted into the medium was measured to determine the effect on cellular release of collagen III. […]

hyaluronic acid (HA) = assay: HA measurement in culture medium of HaCaT cells (HA-ELISA); type: cell-based, human; conditions: relative to 0 = 1.00
Method: HA measurement was carried out as described (BBRC, 2004, 316: 348-355). Briefly, HaCaT or HDF cells were seeded and incubated in 24-well plates to confluency. Immediately before experiments, cells were washed twice with serum-free medium to completely remove HA accumulated during cell growth. The cells were then cultured with or without different compounds in 0.5 ml serum-free medium for 48 h. At the indicated time, aliquots of medium were removed, centrifuged at 15000 g for 5 min, and supernatants were analyzed for HA using an enzyme-linked immunosorbent assay (ELISA) kit (Echelon Bioscience, Salt Lake, Utah).
Results shown represent the fold of induction of the astragalosides on hyaluronic acid expression in HaCaT cells. The concentrations of astragalosides used were 0, 1, or 10 μM (unless indicated otherwise) for astragaloside pure compounds; were 0, 0.5, 1, 2.5, 5, 10, 40 μg/mL for the butanol fraction (unless indicated otherwise); and were 0, 1, 10, 40 μg/mL for the water insoluble fraction (unless indicated otherwise). The cells were treated with the indicated compounds for 24 h before harvested for analysis of secreted hyaluronic acid in culture medium using HA-ELISA kit.

HaCaT cells = assay: Glucosamine uptake assay in HaCaT cells; type: cell-based, human; conditions: 0.1 μM; for Uptake rate (glucosamine): 48 h treatment; for Percentage (%) of control glucosamine uptake: relative to control
Method: In glucosamine uptake test, HaCaT cells were seeded into 24-well plate at a density of 3×10^4 cells/well and cultured for 24 h. The cells were then treated in the absence (solvent control) or presence of various concentrations of astragalosides for another 48 h. The treated cells were then washed twice with PBS and incubated in glucose and serum free medium (GSFM). After 2 h, the cells were replaced with fresh GSFM containing 0.2 μCi of [^14C]-Glucosamine (American Radiolabelled Chemicals Inc, ARC, St. Louis, Mo., USA). At the designated time interval, the cells were washed twice with GSFM containing cold glucosamine and then lysed in 200 μL 2% SDS. Cell lysates were centrifuged at 15000 g for 15 min. Intracellular uptaken glucosamine was determined by transferring 10 μL of the cell lysate to filter-bottemed UniFilter plates (Perkim-Elmer) and counted. Protein concentration of the samples was measured using the BCA protein assay kit as described above. Glucosamine accumulated in the cells was calculated and normalized to protein concentration and uptake rate was expressed as counts per minute per microgram of cell protein (cpm/min/μg).

collagen I = assay: Collagen I expression in human HaCaT cells (western blot); type: cell-based; conditions: relative to 0 μM = 1.00
Method: as §1, §2, §3
Results shown represent the quantitated data from western blot analysis. […] The collagen I was also over-expressed in the human HaCaT cells treated with 40 μg/mL of astragaloside extract.

Compound	Collagen III in medium (collagen III; 0.01 μM)	Collagen III in medium (collagen III; 0.1 μM)	Collagen III in medium (collagen III; 1 μM)	HA in medium (fold of induction) (hyaluronic acid (HA); 1 μM)	HA in medium (fold of induction) (hyaluronic acid (HA); 10 μM)	Uptake rate (glucosamine) (HaCaT cells)	Percentage (%) of control glucosamine uptake (HaCaT cells)	Collagen III in cell (collagen III; 0.01 μM)	Collagen III in cell (collagen III; 0.1 μM)	Collagen III in cell (collagen III; 1 μM)	Collagen I in cell (collagen I; 0.01 μM)	Collagen I in cell (collagen I; 0.1 μM)	Collagen I in cell (collagen I; 1 μM)
CC(C)(O)[C@@H]1CC[C@](C)([C@H]2[C@@H](O)C[C@@]3(C)[C@@H]4C[C@H](O[C@@H]5O[C@H](CO)[C@@H](O)[C@H](O)[C@H]5O)[C@H]5C(C)(C)[C@@H](O[C@@H]6OC[C@@H](O)[C@H](O)[C@H]6O)CC[C@@]56C[C@@]46CC[C@]23C)O1 [AS4, astragaloside IV]	0.79	1.13	1.16	2.27	1.31	0.8931 ± 0.0918 CPM/μg protein	108.36%						
CC(C)(O)[C@@H]1CC[C@](C)([C@H]2[C@@H](O)C[C@@]3(C)[C@@H]4C[C@H](O)[C@H]5C(C)(C)[C@@H](O[C@@H]6OC[C@@H](O)[C@H](O)[C@H]6O[C@@H]6O[C@H](CO)[C@@H](O)[C@H](O)[C@H]6O)CC[C@@]56C[C@@]46CC[C@]23C)O1 [AS3, astragaloside III]						1.0129 ± 0.0371 CPM/μg protein	122.90%	0.86	1.22	2.12			
astragaloside I [AS1]				1.45	1.36	1.0482 ± 0.0560 CPM/μg protein	127.18%	1.29	1.59	2.63	1.13	0.72	1.22
CC(C)(O)[C@@H]1CC[C@](C)([C@H]2[C@@H](O)C[C@@]3(C)[C@@H]4C[C@H](O[C@@H]5O[C@H](CO)[C@@H](O)[C@H](O)[C@H]5O)[C@H]5C(C)(C)[C@@H](O[C@@H]6OC[C@@H](O)[C@H](O)[C@H]6O[C@@H]6O[C@H](CO)[C@@H](O)[C@H](O)[C@H]6O)CC[C@@]56C[C@@]46CC[C@]23C)O1 [AS6, astragaloside VI]	4.55	4.27	3.86	1.13	1.38	0.8471 ± 0.0278 CPM/μg protein	102.78%						
CC(=O)O[C@H]1[C@H](O[C@H]2CC[C@]34C[C@]35CC[C@]3(C)[C@@H]([C@@]6(C)CC[C@@H](C(C)(C)O)O6)[C@@H](O)C[C@@]3(C)[C@@H]5C[C@H](O[C@@H]3O[C@H](CO)[C@@H](O)[C@H](O)[C@H]3O)[C@H]4C2(C)C)OC[C@@H](OC(C)=O)[C@@H]1O [isoAS1, isoastragaloside I]	3.32	4.41	6.53			0.9589 ± 0.0665 CPM/μg protein	116.34%				1.13	1.06	1.19
CC(=O)O[C@H]1[C@H](O[C@H]2CC[C@]34C[C@]35CC[C@]3(C)[C@@H]([C@@]6(C)CC[C@@H](C(C)(C)O)O6)[C@@H](O)C[C@@]3(C)[C@@H]5C[C@H](O[C@@H]3O[C@H](CO)[C@@H](O)[C@H](O)[C@H]3O)[C@H]4C2(C)C)OC[C@@H](O)[C@@H]1O [AS2, astragaloside II]				1.98	1.31	0.9561 ± 0.0918 CPM/μg protein	116.00%	1.36	1.44	1.49	0.86	1.14	1.87
CC(=O)O[C@@H]1[C@@H](O)[C@H](O[C@H]2CC[C@]34C[C@]35CC[C@]3(C)[C@@H]([C@@]6(C)CC[C@@H](C(C)(C)O)O6)[C@@H](O)C[C@@]3(C)[C@@H]5C[C@H](O[C@@H]3O[C@H](CO)[C@@H](O)[C@H](O)[C@H]3O)[C@H]4C2(C)C)OC[C@H]1O [isoAS2, isoastragaloside II]						0.9226 ± 0.0668 CPM/μg protein	111.94%				1.52	0.94	1.41
